The values below come from patent US9540399B2, “Quinolone derivatives” (priority 2013, dated 2017).

What all share (experiment): Bacterial growth minimal inhibitory concentration, microdilution
Assay type in all cases: cell-based
Background: In broth dilution the organism is exposed to a series of concentrations in liquid medium.

Assay [1] deals with Acinetobacter baumanii T6474. As to conditions: Acinetobacter baumannii, multiply-resistant, quinolone-resistant strain, cation-adjusted Mueller Hinton Broth. On the procedure: (§1) Minimal Inhibitory Concentrations (MICs; mg/l) were determined in cation-adjusted Mueller Hinton Broth by a microdilution method following the description given in “Methods for Dilution Antimicrobial Susceptibility Tests for Bacteria that Grow Aerobically”, Approved standard, 7th ed., Clinical and Laboratory Standards Institute (CLSI) Document M7-A7, Wayne, Pa., USA, 2006.
(§2) All Example compounds were tested against several Gram positive and especially Gram negative bacteria. […] Staphylococcus aureus A798, Klebsiella pneumoniae A651 and Acinetobacter baumanii T6474 are multiply-resistant strains (in particular quinolone-resistant), while Moraxella catarrhalis A894 and E. coli ATCC 25922 are quinolone-sensitive strains.

Another assay deals with E. coli ATCC 25922. As to conditions: Escherichia coli, ATCC25922; quinolone-sensitive strain; cation-adjusted Mueller Hinton Broth. As for the experimental part: as §1, §2
Assay [2] has as its system Staphylococcus aureus A798. As to conditions: multiply-resistant, quinolone-resistant strain, cation-adjusted Mueller Hinton Broth, read-out: MIC for S. aureus A798. On the procedure:
as §1, §2

Assay [3] concerns Moraxella catarrhalis A894. As to conditions: quinolone-sensitive strain, cation-adjusted Mueller Hinton Broth. On the procedure: as §1, §2
Assay [4] concerns Klebsiella pneumoniae A651. As to conditions: multiply-resistant, quinolone-resistant strain, cation-adjusted Mueller Hinton Broth, read-out: MIC for K. pneumoniae A651. On the procedure: as §1, §2

Converted amounts (≈) assume the structure as drawn.

Broadly, the MIC is the lowest concentration that inhibits growth of the organism. For `O=C1CSc2ccc(CN[C@H]3CC[C@H](Nc4nc5c(cc4F)c(=O)c(C(=O)O)cn5C4CC4)CC3)nc2N1` [Example 2, trans-1-Cyclopropyl-6-fluoro-4-oxo-7-{4-[(3-oxo-3,4-dihydro-2H-pyrido[3,2-b][1,4]thiazin-6-ylmethyl)-amino]-cyclohexylamino}-1,4-dihydro-[1,8]naphthyridine-3-carboxylic acid], the MIC in assay [1] is 0.5 µg/mL (≈ 0.928 µM); in the assay on E. coli ATCC 25922, 0.5 µg/mL (≈ 0.928 µM); in assay [2], 4 µg/mL (≈ 7.43 µM); in assay [3], 0.25 µg/mL (≈ 0.464 µM); in assay [4], 1 µg/mL (≈ 1.86 µM).
Take `Cn1cc(C(=O)O)c(=O)c2cc(F)c(N[C@H]3CC[C@H](CNCc4ccc5c(n4)NC(=O)CO5)CC3)nc21` [Example 14, trans-6-Fluoro-1-methyl-4-oxo-7-(4-{[(3-oxo-3,4-dihydro-2H-pyrido[3,2-b][1,4]oxazin-6-ylmethyl)-amino]-methyl}-cyclohexylamino)-1,4-dihydro-[1,8]naphthyridine-3-carboxylic acid]: the MIC was 1 µg/mL (≈ 1.96 µM) in assay [1]; 0.125 µg/mL (≈ 0.245 µM) in the assay on E. coli ATCC 25922; 8 µg/mL (≈ 15.7 µM) in assay [2]; 0.063 µg/mL (≈ 0.123 µM) in assay [3]; 1 µg/mL (≈ 1.96 µM) in assay [4].
With `O=C1CSc2ccc(CNCCN3CCN(c4cc5c(cc4F)c(=O)c(C(=O)O)cn5C4CC4)CC3)nc2N1` [Example 11, 1-Cyclopropyl-6-fluoro-4-oxo-7-(4-{2-[(3-oxo-3,4-dihydro-2H-pyrido[3,2-b][1,4]thiazin-6-ylmethyl)-amino]-ethyl}-piperazin-1-yl)-1,4-dihydro-quinoline-3-carboxylic acid], the minimum inhibitory concentration (MIC) in assay [1] is over 8 µg/mL; in the assay with E. coli ATCC 25922, 2 µg/mL (≈ 3.62 µM); in assay [2] it was 8 µg/mL (≈ 14.5 µM); in assay [3], 1 µg/mL (≈ 1.81 µM); in assay [4], 8 µg/mL (≈ 14.5 µM).
As for `O=C1CSc2ccc(CNCCC3CCN(c4nc5c(cc4F)c(=O)c(C(=O)O)cn5C4CC4)CC3)nc2N1` [Example 5, 1-Cyclopropyl-6-fluoro-4-oxo-7-(4-{2-[(3-oxo-3,4-dihydro-2H-pyrido[3,2-b][1,4]thiazin-6-ylmethyl)-amino]-ethyl}-piperidin-1-yl)-1,4-dihydro-[1,8]naphthyridine-3-carboxylic acid], the MIC was 1 µg/mL (≈ 1.81 µM) in assay [1]; 0.5 µg/mL (≈ 0.905 µM) against E. coli ATCC 25922; 8 µg/mL (≈ 14.5 µM) in assay [2]; 0.125 µg/mL (≈ 0.226 µM) in assay [3]; 2 µg/mL (≈ 3.62 µM) in assay [4].
The matching figures for `Cn1cc(C(=O)O)c(=O)c2cc(F)c(N3CCC(CCNCc4ccc5c(n4)NC(=O)CS5)CC3)nc21` [Example 17, 6-Fluoro-1-methyl-4-oxo-7-(4-{2-[(3-oxo-3,4-dihydro-2H-pyrido[3,2-b][1,4]thiazin-6-ylmethyl)-amino]-ethyl}-piperidin-1-yl)-1,4-dihydro-[1,8]naphthyridine-3-carboxylic acid]: 0.125 µg/mL (≈ 0.237 µM), 0.125 µg/mL (≈ 0.237 µM), 0.5 µg/mL (≈ 0.949 µM), 0.031 µg/mL (≈ 0.0589 µM) and 0.5 µg/mL (≈ 0.949 µM).
For `Cn1cc(C(=O)O)c(=O)c2cc(F)c(N3CCC(CCNCc4ccc5c(n4)NC(=O)CO5)CC3)nc21` [Example 16, 6-Fluoro-1-methyl-4-oxo-7-(4-{2-[(3-oxo-3,4-dihydro-2H-pyrido[3,2-b][1,4]oxazin-6-ylmethyl)-amino]-ethyl}-piperidin-1-yl)-1,4-dihydro-[1,8]naphthyridine-3-carboxylic acid], in that order: 0.5 µg/mL (≈ 0.979 µM), 0.25 µg/mL (≈ 0.49 µM), 2 µg/mL (≈ 3.92 µM), 0.125 µg/mL (≈ 0.245 µM) and 1 µg/mL (≈ 1.96 µM).
With `O=C1CSc2ccc(CNC[C@H]3CC[C@H](Nc4nc5c(cc4F)c(=O)c(C(=O)O)cn5C4CC4)CC3)nc2N1` [Example 1, trans-1-Cyclopropyl-6-fluoro-4-oxo-7-(4-{[(3-oxo-3,4-dihydro-2H-pyrido[3,2-b][1,4]thiazin-6-ylmethyl)-amino]-methyl}-cyclohexylamino)-1,4-dihydro-[1,8]naphthyridine-3-carboxylic acid], the MIC in assay [1] was found to be 0.125 µg/mL (≈ 0.226 µM); with E. coli ATCC 25922, 0.25 µg/mL (≈ 0.452 µM); in assay [2], 1 µg/mL (≈ 1.81 µM); in assay [3], 0.125 µg/mL (≈ 0.226 µM); in assay [4] it was 0.5 µg/mL (≈ 0.905 µM).
